Laboratory results reported in ChEMBL document CHEMBL3797086, “Synthesis and biological evaluation of novel structural hybrids of benzofuroxan derivatives and fluoroquinolones” (Eur J Med Chem, 2016).
Converted amounts (≈) assume the structure as drawn.

What was measured:
[1] = test system: Staphylococcus aureus; experiment: microbe, parasite or virus in culture; format: functional; settings: 209p
[2] = test system: Bacillus cereus; experiment: microbe, parasite or virus in culture; format: functional; settings: Bacillus cereus, 8035, 4 h
[3] = test system: Bacillus cereus; experiment: microbe, parasite or virus in culture; format: functional; settings: 8035
[4] = test system: Pseudomonas aeruginosa; experiment: microbe, parasite or virus in culture; format: functional; settings: 9027
[5] = test system: Staphylococcus aureus; experiment: microbe, parasite or virus in culture; format: functional; settings: 209p, 4 h
[6] = test system: Pseudomonas aeruginosa; experiment: microbe, parasite or virus in culture; format: functional; settings: Pseudomonas aeruginosa, 9027, 4 h
[7] = in vitro; settings: human
[8] = test system: Escherichia coli; experiment: microbe, parasite or virus in culture; format: functional; settings: F-50, 4 h
[9] = test system: Escherichia coli; experiment: microbe, parasite or virus in culture; format: functional; settings: F-50
[10] = test system: Bacillus cereus; experiment: Potency index, ratio of lomefloxacin MBC to compound MBC for Bacillus cereus 8035; format: functional
[11] = red blood cells (RBC), at 0.19 to 3.9 µg/mL

SMILES	MIC [1]	MBC [2]	MIC [3]	MIC [4]	MBC [5]	MBC [6]	hemolysis at 1 h [7, 11]	MBC [8]	MIC [9]	hemolysis at 1 h ([7]; erythrocyte)	Ratio [10]
O=C(O)c1cn(C2CC2)c2cc(N3CCNCC3)c(F)cc2c1=O.O=[N+]([O-])c1c(Cl)cc2c(no[n+]2[O-])c1O	3.9 µg/mL	62.5 µg/mL	7.8 µg/mL	15.6 µg/mL	7.8 µg/mL	31.3 µg/mL	–	–	–	–	–
CC1CN(c2c(F)c(N)c3c(=O)c(C(=O)O)cn(C4CC4)c3c2F)CC(C)N1.O=[N+]([O-])c1c(Cl)cc2c(no[n+]2[O-])c1O (stereo not drawn)	0.39 µg/mL	1.5 µg/mL	0.19 µg/mL	3.1 µg/mL	0.39 µg/mL	6.3 µg/mL	≤ 1%	1.5 µg/mL	1.5 µg/mL	–	–
C[C@@H]1CN(c2c(F)c(N)c3c(=O)c(C(=O)O)cn(C4CC4)c3c2F)C[C@H](C)N1 [SPARFLOXACIN]	0.19 µg/mL (≈ 0.484 µM)	3.1 µg/mL (≈ 7.9 µM)	0.19 µg/mL (≈ 0.484 µM)	0.78 µg/mL (≈ 1.99 µM)	0.39 µg/mL (≈ 0.994 µM)	3.1 µg/mL (≈ 7.9 µM)	≤ 1%	3.1 µg/mL (≈ 7.9 µM)	0.19 µg/mL (≈ 0.484 µM)	–	–
O=C(O)c1cn(C2CC2)c2cc(N3CCNCC3)c(F)cc2c1=O [CIPROFLOXACIN]	0.19 µg/mL (≈ 0.573 µM)	6.3 µg/mL (≈ 19 µM)	0.39 µg/mL (≈ 1.18 µM)	0.39 µg/mL (≈ 1.18 µM)	1.5 µg/mL (≈ 4.53 µM)	3.1 µg/mL (≈ 9.36 µM)	–	3.1 µg/mL (≈ 9.36 µM)	–	≤ 1%	–
CCn1cc(C(=O)O)c(=O)c2cc(F)c(N3CCNCC3)cc21 [NORFLOXACIN]	0.39 µg/mL (≈ 1.22 µM)	3.1 µg/mL (≈ 9.71 µM)	1.5 µg/mL (≈ 4.7 µM)	3.1 µg/mL (≈ 9.71 µM)	6.3 µg/mL (≈ 19.7 µM)	25 µg/mL (≈ 78.3 µM)	≤ 1%	3.1 µg/mL (≈ 9.71 µM)	0.19 µg/mL (≈ 0.595 µM)	–	–
CCn1cc(C(=O)O)c(=O)c2cc(F)c(N3CCNC(C)C3)c(F)c21 (stereo not drawn) [LOMEFLOXACIN]	0.78 µg/mL (≈ 2.22 µM)	12.5 µg/mL (≈ 35.6 µM)	6.3 µg/mL (≈ 17.9 µM)	6.3 µg/mL (≈ 17.9 µM)	3.1 µg/mL (≈ 8.82 µM)	12.5 µg/mL (≈ 35.6 µM)	≤ 1%	6.3 µg/mL (≈ 17.9 µM)	3.1 µg/mL (≈ 8.82 µM)	–	–
CCn1cc(C(=O)O)c(=O)c2cc(F)c(N3CCNC(C)C3)c(F)c21.O=[N+]([O-])c1c(Cl)cc2c(no[n+]2[O-])c1O (stereo not drawn)	0.97 µg/mL	1.5 µg/mL	0.97 µg/mL	6.3 µg/mL	1.9 µg/mL	12.5 µg/mL	≤ 1%	12.5 µg/mL	3.1 µg/mL	–	8
CCn1cc(C(=O)O)c(=O)c2cc(F)c(N3CCNCC3)cc21.O=[N+]([O-])c1c(Cl)cc2c(no[n+]2[O-])c1O	7.8 µg/mL	15.6 µg/mL	7.8 µg/mL	31.3 µg/mL	31.3 µg/mL	> 500 µg/mL	≤ 1%	> 500 µg/mL	–	–	–
